Measured values from publication PMC8725448 (Journal of Cannabis Research, 2022).
Entries after “also recorded” stand apart in the source; their conditions may differ. Read-outs that look alike come from different tables or passages of the source.

Key:
[1] = Pharmacokinetic analysis in mouse plasma and brain after i.p. injection; format: in vivo; settings: for Kp: brain/plasma; for Kp / Cmax / AUC / Tmax / half-life: 10 mg/kg, mouse; for Kp / Cmax: i.p.
Protocol: Wildtype mice (postnatal day 21-28, P21-28) received an i.p. injection of 10 mg/kg CBGA methyl ester or olivetolic acid. At selected time points (15–120 min) mice were anesthetized with isoflurane, whole blood was collected by cardiac puncture and brains were harvested. The plasma was isolated by centrifugation and samples were stored at −80°C until assayed. Concentrations in the plasma and brain samples at each time point were averaged, and pharmacokinetic parameters were calculated by noncompartmental analysis as previously described (Hawkins et al. [2017]).
The plasma and brain samples were prepared for LC-MS/MS analysis as previously described (Anderson et al. [2019b], [2020]). Briefly, acetonitrile was used to precipitate proteins and extract CBGA methyl ester and olivetolic acid from the biological matrices. The brain samples were additionally filtered through Amicon Ultracel 3K (Merck-Millipore; Burlington, USA) filtration devices. The plasma and brain samples underwent supported-liquid extraction with methyl tert-butyl ether using Biotage Isolute SLE+ columns (Uppsala, SWE) and were then evaporated to dryness with N2. Residues were reconstituted in actetonitrile and 0.1% formic acid in water (1:1, v/v) for analysis using a Shimadzu Nexera ultra-HPLC coupled to a Shimadzu 8030 triple quadrupole mass spectrometer (Shimadzu Corp.; Kyoto, JPN). The mass spectrometer was operated in positive electrospray ionization mode for CBGA methyl ester and negative electrospray ionization mode for olivetolic acid with multiple reaction monitoring and the following mass transition pairs (m/z): 375.20 > 343.25, 375.20 > 219.10 and 375.20 > 251.15 (CBGA-methylester) and 223.25 > 179.25 (olivetolic acid). Quantification of analytes in the plasma and brain samples was achieved by comparing samples to standards prepared with known amounts of compound.

human GPR55 = biological target: T1, human GPR55 (Homo sapiens, UniProt Q9Y2T6); test: GPR55 pERK assay (AlphaScreen SureFire Phospho-ERK1/2); format: cell-based; settings: 10 μM; LPI at EC80; HEK293 cells expressing human GPR55
T1 construct: expressed in transfected cells; host or cells: HEK293
Protocol: ERK phosphorylation (pERK) was detected using the AlphaScreen® SureFire® Phospho-ERK1/2 assay (Perkin Elmer; Waltham, USA) as previously described (Anderson et al. [2021b]). Briefly, the human embryonic kidney (HEK) 293 cells stably expressing human GPR55 in L-15 media were plated (110,000/well) into a Corning CellBIND (Corning Inc; Corning, USA) clear, flat-bottomed 96-well plate and incubated 20–24 h at 37°C in ambient CO2. Media was aspirated, 50 μL phenol red-free DMEM/F-12 was added to each well and incubated for 2–3 h at 37°C in a humidified 5% CO2 atmosphere. Compounds (10 μM in phenol red-free DMEM/F-12) were added and incubated for 20 min before media was aspirated and lysis buffer was added. Lysates (5 μL) were incubated with reaction mixture (7 μL) for 3.5 h at room temperature. A CLARIOstar plate reader (BMG Labtech; Offenburg, GER) was used to take fluorescence readings over 740 msec (excitation 680 nm, emission 520–620 nm). Fluorescence readings were normalized to those of 4 μM LPI, the endogenous GPR55 agonist. […] Final DMSO concentrations were ≤ 0.2%. Statistical comparisons were made in GraphPad Prism using one-way ANOVA followed by Dunnett’s post hoc and p < 0.05 was considered statistically significant.

CaV3.1 = biological target: T2, CaV3.1 (Homo sapiens, UniProt O43497); test: Measurement of intracellular calcium, CaV3.1; format: cell-based; settings: 10 μM; HEK293 cells expressing human CaV3.1
T2 construct: expressed in transfected cells; host or cells: Flp-In T-REx HEK (tetracycline-induced)
Protocol: (§1) Changes in intracellular calcium concentrations were measured in Flp-In™ T-REx™ HEK stably expressing either CaV3.1, CaV3.2, or CaV3.3 using Calcium 5 dye (Molecular Devices; Sunnyvale, USA) as previously described (Bladen et al. [2021]). Briefly, cells (120,000/well) were plated into a black, clear-bottomed poly-D-lysine coated, 96-well plate in the presence of 2 μg/mL tetracycline to induce channel expression and incubated overnight at 37°C in ambient CO2. Calcium 5 dye was diluted in HEPES-buffered low potassium Hanks Balanced Salt Solution (HBSS) at 50% of manufacturer’s recommendation. Dye solution containing probenecid (2.5 mM) was added and incubated for 60 min at 37°C in ambient CO2. Compounds were prepared as stock solutions in DMSO and diluted in HBSS with 0.01% bovine serum albumin. Compounds were applied for 5 min, then 10 mM CaCl2 was added. A FlexStation 3 Microplate reader (Molecular Devices; San Jose, USA) was used to take fluorescence readings every 2 s (excitation 485 nm, emission 525 nm). Baseline recordings were taken as the average fluorescence over 20 s preceding CaCl2 addition. Changes in fluorescence were measured as the maximal increase in fluorescence from baseline following CaCl2 addition and normalized to the response of vehicle. CaCl2 addition produced no effect in non-induced cells (Supplemental Fig. 2). Final drug concentrations had ≤ 0.1% DMSO. […]

CaV3.2 = biological target: T3, CaV3.2 (Homo sapiens, UniProt O95180); test: Measurement of intracellular calcium, CaV3.2; format: cell-based; settings: 10 μM; HEK293 cells expressing human CaV3.2
T3 construct: expressed in transfected cells; host or cells: Flp-In T-REx HEK (tetracycline-induced)
Protocol: as §1, with “vehicle.” for “vehicle. CaCl2 addition produced no effect in non-induced cells (Supplemental Fig. 2). Final drug concentrations had ≤ 0.1% DMSO.”

[2] = intraperitoneal, read-out: brain penetration
[3] = ip, from AUC values, read-out: Brain-plasma ratio
[4] = ip, brain, converted from ng/mg brain assuming density of 1 g/mL, read-out: Cmax

T3 sequence (O95180 whole entry): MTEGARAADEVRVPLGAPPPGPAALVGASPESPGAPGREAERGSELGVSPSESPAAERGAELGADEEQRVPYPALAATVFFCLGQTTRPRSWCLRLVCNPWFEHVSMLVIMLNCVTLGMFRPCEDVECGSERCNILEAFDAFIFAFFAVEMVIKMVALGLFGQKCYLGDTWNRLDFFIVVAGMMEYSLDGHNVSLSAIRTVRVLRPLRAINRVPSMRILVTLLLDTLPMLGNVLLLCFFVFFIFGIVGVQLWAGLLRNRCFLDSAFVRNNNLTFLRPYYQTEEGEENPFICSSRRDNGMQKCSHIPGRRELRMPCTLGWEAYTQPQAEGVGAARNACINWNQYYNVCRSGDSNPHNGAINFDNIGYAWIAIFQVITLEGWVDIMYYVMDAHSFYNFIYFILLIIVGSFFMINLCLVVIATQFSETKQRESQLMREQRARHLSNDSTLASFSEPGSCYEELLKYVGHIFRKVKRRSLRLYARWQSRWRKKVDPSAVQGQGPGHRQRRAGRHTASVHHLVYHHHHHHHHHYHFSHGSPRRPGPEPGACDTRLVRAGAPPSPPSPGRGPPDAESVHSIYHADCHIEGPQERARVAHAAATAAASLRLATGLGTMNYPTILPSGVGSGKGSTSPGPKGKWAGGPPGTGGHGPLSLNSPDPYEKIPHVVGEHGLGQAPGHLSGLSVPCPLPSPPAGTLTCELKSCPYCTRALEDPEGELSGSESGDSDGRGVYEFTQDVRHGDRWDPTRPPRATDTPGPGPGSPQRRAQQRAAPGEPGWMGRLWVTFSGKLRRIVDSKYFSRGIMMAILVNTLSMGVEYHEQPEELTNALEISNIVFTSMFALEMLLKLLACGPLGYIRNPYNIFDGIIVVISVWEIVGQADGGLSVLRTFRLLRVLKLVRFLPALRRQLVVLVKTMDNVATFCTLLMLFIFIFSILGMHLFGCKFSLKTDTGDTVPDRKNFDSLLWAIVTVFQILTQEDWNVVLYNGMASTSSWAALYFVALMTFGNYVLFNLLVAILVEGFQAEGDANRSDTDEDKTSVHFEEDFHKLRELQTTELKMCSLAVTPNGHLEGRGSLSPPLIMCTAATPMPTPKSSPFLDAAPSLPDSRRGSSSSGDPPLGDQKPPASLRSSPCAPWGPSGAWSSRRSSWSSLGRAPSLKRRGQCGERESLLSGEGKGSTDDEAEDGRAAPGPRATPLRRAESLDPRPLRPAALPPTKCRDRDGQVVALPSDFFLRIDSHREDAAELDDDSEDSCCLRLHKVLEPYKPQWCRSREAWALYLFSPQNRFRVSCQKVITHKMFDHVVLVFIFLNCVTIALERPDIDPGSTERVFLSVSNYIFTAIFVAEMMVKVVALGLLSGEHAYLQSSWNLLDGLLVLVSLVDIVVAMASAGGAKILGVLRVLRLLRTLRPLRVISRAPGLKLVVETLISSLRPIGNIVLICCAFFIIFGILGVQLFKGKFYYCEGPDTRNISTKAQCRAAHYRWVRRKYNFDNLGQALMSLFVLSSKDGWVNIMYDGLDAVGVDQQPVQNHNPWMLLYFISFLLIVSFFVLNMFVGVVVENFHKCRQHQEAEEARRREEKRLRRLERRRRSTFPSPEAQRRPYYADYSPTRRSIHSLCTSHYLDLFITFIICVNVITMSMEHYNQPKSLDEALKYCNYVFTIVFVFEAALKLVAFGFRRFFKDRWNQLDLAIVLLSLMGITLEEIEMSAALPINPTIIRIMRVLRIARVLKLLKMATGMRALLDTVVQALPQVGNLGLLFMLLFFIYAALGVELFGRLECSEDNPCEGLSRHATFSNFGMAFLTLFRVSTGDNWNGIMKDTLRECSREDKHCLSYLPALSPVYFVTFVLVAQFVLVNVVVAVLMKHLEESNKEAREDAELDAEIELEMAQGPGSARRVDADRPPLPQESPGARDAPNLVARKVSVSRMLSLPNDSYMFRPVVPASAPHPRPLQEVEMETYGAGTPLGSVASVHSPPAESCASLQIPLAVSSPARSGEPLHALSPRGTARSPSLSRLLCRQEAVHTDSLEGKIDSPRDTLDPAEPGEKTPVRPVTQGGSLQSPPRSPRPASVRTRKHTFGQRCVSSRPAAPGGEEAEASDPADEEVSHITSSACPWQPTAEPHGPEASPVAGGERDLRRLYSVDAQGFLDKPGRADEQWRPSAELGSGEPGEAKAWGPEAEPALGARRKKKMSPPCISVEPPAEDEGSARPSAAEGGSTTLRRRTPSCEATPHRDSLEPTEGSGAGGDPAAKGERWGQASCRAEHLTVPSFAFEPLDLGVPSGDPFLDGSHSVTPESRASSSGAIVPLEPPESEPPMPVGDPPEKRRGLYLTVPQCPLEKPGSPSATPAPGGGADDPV
T1 sequence (Q9Y2T6 whole entry): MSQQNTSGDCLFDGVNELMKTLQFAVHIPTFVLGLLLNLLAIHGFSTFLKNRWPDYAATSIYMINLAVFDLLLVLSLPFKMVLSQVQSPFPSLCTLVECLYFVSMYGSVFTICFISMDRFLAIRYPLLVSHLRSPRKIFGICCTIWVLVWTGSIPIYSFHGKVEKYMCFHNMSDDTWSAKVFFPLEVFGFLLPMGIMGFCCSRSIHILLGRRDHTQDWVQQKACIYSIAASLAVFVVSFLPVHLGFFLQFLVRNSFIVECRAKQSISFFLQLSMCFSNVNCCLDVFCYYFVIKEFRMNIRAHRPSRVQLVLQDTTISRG
T2 sequence (O43497 whole entry): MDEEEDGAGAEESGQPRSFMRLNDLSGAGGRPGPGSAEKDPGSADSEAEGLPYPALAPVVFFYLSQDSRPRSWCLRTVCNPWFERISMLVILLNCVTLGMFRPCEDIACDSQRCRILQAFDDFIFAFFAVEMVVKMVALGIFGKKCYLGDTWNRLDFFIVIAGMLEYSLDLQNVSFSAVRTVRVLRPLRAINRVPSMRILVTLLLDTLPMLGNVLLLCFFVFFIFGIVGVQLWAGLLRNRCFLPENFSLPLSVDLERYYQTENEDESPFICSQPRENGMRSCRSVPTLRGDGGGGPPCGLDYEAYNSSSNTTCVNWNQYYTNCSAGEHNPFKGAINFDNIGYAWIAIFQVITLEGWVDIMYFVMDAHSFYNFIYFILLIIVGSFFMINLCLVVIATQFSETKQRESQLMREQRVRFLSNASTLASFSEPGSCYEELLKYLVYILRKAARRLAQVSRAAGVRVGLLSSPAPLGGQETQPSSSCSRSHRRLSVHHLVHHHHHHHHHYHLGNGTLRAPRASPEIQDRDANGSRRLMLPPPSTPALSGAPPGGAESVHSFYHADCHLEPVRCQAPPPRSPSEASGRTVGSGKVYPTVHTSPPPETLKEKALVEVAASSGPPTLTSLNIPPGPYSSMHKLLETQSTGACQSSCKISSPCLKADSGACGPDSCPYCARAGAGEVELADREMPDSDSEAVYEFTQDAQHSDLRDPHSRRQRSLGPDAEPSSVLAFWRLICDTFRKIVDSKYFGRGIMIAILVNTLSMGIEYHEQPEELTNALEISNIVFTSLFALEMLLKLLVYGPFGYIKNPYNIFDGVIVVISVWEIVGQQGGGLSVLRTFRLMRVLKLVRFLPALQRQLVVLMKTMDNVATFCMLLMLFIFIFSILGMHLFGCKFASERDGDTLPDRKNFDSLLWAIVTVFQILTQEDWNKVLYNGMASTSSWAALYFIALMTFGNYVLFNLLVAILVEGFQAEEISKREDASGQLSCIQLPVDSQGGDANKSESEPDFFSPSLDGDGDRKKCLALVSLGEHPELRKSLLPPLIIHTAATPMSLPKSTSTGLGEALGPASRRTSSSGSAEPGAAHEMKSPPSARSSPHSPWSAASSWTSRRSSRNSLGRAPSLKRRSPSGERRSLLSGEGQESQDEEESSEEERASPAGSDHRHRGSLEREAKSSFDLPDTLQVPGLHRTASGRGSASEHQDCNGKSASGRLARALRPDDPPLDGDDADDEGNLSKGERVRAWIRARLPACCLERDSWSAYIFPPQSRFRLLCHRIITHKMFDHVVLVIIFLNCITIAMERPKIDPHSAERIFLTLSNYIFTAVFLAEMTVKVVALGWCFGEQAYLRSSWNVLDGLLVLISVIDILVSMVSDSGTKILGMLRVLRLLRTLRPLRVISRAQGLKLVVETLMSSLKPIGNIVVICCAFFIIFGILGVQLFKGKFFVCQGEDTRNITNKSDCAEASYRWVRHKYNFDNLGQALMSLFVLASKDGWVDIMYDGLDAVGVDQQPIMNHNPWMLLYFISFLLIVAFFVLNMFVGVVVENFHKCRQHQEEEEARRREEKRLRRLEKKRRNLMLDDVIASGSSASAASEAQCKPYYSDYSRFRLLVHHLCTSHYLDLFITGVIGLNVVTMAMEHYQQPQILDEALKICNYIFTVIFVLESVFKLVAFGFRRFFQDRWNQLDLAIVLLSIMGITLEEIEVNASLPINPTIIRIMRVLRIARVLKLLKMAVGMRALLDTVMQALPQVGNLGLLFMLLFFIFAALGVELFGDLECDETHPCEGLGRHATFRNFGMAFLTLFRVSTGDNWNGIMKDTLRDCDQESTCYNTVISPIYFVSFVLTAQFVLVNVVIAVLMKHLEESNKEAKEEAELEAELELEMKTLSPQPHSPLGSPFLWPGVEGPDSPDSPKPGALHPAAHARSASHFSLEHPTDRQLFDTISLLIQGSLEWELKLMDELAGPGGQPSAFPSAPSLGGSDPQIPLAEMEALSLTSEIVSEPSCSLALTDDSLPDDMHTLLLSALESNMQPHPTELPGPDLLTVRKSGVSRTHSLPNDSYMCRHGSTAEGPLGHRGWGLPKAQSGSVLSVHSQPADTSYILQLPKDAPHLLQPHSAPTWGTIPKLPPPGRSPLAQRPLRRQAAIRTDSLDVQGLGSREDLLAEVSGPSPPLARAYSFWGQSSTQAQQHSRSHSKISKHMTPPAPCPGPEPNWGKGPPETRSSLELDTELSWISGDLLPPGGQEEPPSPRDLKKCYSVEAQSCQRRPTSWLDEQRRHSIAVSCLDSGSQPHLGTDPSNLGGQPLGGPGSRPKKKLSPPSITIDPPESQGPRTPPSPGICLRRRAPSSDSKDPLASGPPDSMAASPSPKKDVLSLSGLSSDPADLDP

| Compound | Kp [1, 2] | Kp [1, 3] | Cmax ([1]; brain) [ng/mg brain] | Cmax [1, 4] [ng/mL] | AUC ([1]; ip, brain) [ng·h/mL] | Tmax ([1]; ip, brain) [min] | Cmax ([1]; ip, plasma, read-out: Cmax) [ng/mL] | AUC ([1]; ip, plasma) [ng·h/mL] | Tmax ([1]; ip, plasma) [min] | half-life ([1]; brain, ip) [min] | half-life ([1]; plasma, ip) [min] | inhibition of GPR55 activity (pERK relative to agonist LPI alone) (human GPR55) | inhibition of CaV3.1 (change in intracellular calcium relative to vehicle) (CaV3.1) | inhibition of CaV3.2 (change in intracellular calcium relative to vehicle) (CaV3.2) | improvement of brain-plasma ratio over CBGA ([1]; compared with CBGA of Anderson et al. 2019b) |
| --- | --- | --- | --- | --- | --- | --- | --- | --- | --- | --- | --- | --- | --- | --- | --- |
| CCCCCc1cc(O)cc(O)c1C(=O)O [Olivetolic acid] | 0.01 | 0.01 | 0.45 ± 0.06 | 450 ± 60 | 217 | 15 | 65000 ± 4000 | 18400 | 15 | < 15 | < 15 | did not inhibit; also recorded: ineffective | Neither CBGA methyl ester nor olivetolic acid had any effect; also recorded: ineffective | Neither CBGA methyl ester nor olivetolic acid had any effect; also recorded: ineffective | – |
| CCCCCc1cc(O)c(C/C=C(\C)CCC=C(C)C)c(O)c1C(=O)OC [CBGA methyl ester] | 0.13 | 0.13 | – | 210 ± 30 | 367 | 30 | 1300 ± 300 | 2850 | 45 | 62 | 81 | did not inhibit; also recorded: no effect | Neither CBGA methyl ester nor olivetolic acid had any effect; also recorded: no effect | Neither CBGA methyl ester nor olivetolic acid had any effect; also recorded: no effect | nearly a seven fold improvement |
